Laboratory results published in patent US20020028851A1, “Guanylhydrazones and their use to treat inflammatory conditions” (priority 1994, published 2002).
Where two headings read alike, the source gives them in different places.

Key:
RAW 264.7 cells [1] = test: Whole cell inhibition assay for urea output; assay type: cell-based, murine; conditions: for IC50: interpolated, γIFN+LPS-activated RAW 264.7, 18 hours, read-out: I.C.50 (in parenthesis), inhibition of urea production; for urea % suppression of induced production: γIFN+LPS, 18 hours
Protocol: (§1) RAW 264.7 cells are plated in microculture wells at 1×10^6/ml in RPMI 1640 with 10% FBS and otherwise standard culture conditions and allowed to adhere for 5 hours. They are then activated with 25 U/ml γIFN and 0.1 μg/ml LPS in the presence of test inhibitors. The urea concentration present in the supernatant media, after 18 hours of culture, is determined by a colorimetric blood urea nitrogen diacetylmonoxime assay performed on an aliquot of the culture supernatant (Sigma Chem. Co., St. Louis, Mo.) and inhibition is expressed as the percentage urea compared to that of a parallel control culture treated identically except that the concentration of added inhibitor is zero.
(§2) Various concentrations of the test compounds are included in the media of the stimulated RAW 264.7 cells in culture. The concentration of urea and/or nitrite after 18 hours of activated culture is determined and compared to the uninhibited control value obtained from at least one parallel culture. The fractional reduction is calculated for each concentration of inhibitor and the IC50 (concentration giving 50% reduction) is interpolated. Compounds were dissolved in media with mild heat (60° C.). Those with limited solubility were dissolved in base. The concentration of stock solutions of those compounds which were not completely soluble was determined by OD280.

RAW 264.7 cells [2] = test: Whole cell inhibition assay for arginine uptake; assay type: cell-based, murine; conditions: γIFN+LPS, 8 hours
Protocol: In the embodiment described in the working example herein, a test population of cells was cultured for about 3 hours so that the cells became firmly adherent. Various concentrations of the potential inhibitors were then added to parallel cultures. One hour later the macrophage stimulators, e.g. including, but not limited to LPS and γIFN, were added. Eighteen hours later the cells were washed in a warm balanced salt solution supplemented with glucose. Carrier-free radiolabelled arginine was added; after 5 minutes, active uptake of arginine was stopped by washing the cell three times with buffer, chilled to 0° C., containing 10 mM unlabeled arginine to displace any externally bound label. The contents of the washed cells are solubilized in 100 μl of formic acid and counted by standard techniques.
RAW 264.7 cells are plated in standard 96-well microculture plates at a concentration of 10^5/well and allowed to adhere for from 2 hours to overnight. The medium is then replaced with medium containing the compound to be tested. One hour later, the medium is supplemented so as to contain 25 U/ml γIFN and 0.1 μg/ml LPS and the cultures incubated a further. The cells are then rinsed twice in HEPES- buffered Krebs salt solution with 0.1% glucose. Carrier-free tetra-^3H-arginine is added to each well (2.5 μCi/well with specific activity of […]) and the active uptake of arginine is allowed to continue for a 5 minute period after which the cells are rapidly cooled to 0° C. by lavage with iced saline containing 10 mM unlabeled arginine to displace any externally bound label. The contents of the washed cells are solubilized in 100 Al of formic acid and counted by standard techniques. In subsequent experiments to determine the acitivity of the inhibitors, incubations were performed for 8 hours.
(§3) This section describes experiments that measure the concentration of Compound No. 14 needed to inhibit arginine uptake and NO output. The techniques employed were described in section 7.1 supra.

RAW 264.7 cells [3] = test: Whole cell inhibition assay for NO (nitrite) output; assay type: cell-based, murine; conditions: γIFN+LPS, 18 hours
Protocol: as §1
The production of nitrite is determined by assay of the same tissue culture supernatant by means of a calorimetric assay. Briefly, 4 parts of test solution containing 1% (w/v) sulfanilamide, 0.1% naphthylethylenediamine di-HCl (Griess Reagent), 2.5% H3PO4 and one part media are mixed, incubated for 10 minutes and the absorbance at 560 nm determined. The nitrite concentrations are interpolated from reference curves prepared using NaNO2.
as §2, §3

COc1ccc(C=NNC(=N)N)cc1OCCCCCOc1cc(C=NNC(=N)N)ccc1OC.Cl.Cl
melting point: 195 to 198 °C

CC(=NNC(=N)N)c1cc(NC(=O)c2ccccc2)cc(C(C)=NNC(=N)N)c1.Cl.Cl
melting point: 268 to 272 °C

CC(=NNC(=N)N)c1cc(NC(=N)NC(=N)N)cc(C(C)=NNC(=N)N)c1.Cl.Cl.Cl
melting point: 294 to 297 °C

CC(=O)c1ccc(NC(=O)NCCN(CCNC(=NNC(=N)N)Nc2ccc(C(C)=O)cc2)CCNC(=NNC(=N)N)Nc2ccc(C(C)=NNC(=N)N)cc2)cc1.Cl.Cl.Cl (hydrate or solvate)
melting point: 224 to 225 °C (dec.)

CC(=O)c1cccc(NC(=NNC(=N)N)c2cc(C(=NNC(=N)N)Nc3cccc(C(C)=O)c3)cc(C(=NNC(=N)N)Nc3cccc(C(C)=O)c3)c2)c1.Cl.Cl.Cl (hydrate or solvate)
melting point: 270 to 275 °C (dec.)

CC(=O)c1cc(NC(=O)NCCN(CCNC(=NNC(=N)N)Nc2cc(C(C)=NNC(=N)N)cc(C(C)=NNC(=N)N)c2)CCNC(=NNC(=N)N)Nc2cc(C(C)=NNC(=N)N)cc(C(C)=NNC(=N)N)c2)cc(C(C)=O)c1.Cl.Cl.Cl.Cl.Cl.Cl.Cl (hydrate or solvate)
melting point: 245 to 246 °C (dec.)

CC(=O)c1ccc(NC(=O)NCCCN(CCCNC(=NNC(=N)N)Nc2ccc(C(C)=O)cc2)CCCNC(=NNC(=N)N)Nc2ccc(C(C)=NNC(=N)N)cc2)cc1.Cl.Cl.Cl (hydrate or solvate)
melting point: 209 to 210 °C (dec.)

CC(=O)c1cc(NC(=O)NCCCN(CCCNC(=NNC(=N)N)Nc2cc(C(C)=NNC(=N)N)cc(C(C)=NNC(=N)N)c2)CCCNC(=NNC(=N)N)Nc2cc(C(C)=NNC(=N)N)cc(C(C)=NNC(=N)N)c2)cc(C(C)=O)c1.Cl.Cl.Cl.Cl.Cl.Cl.Cl (hydrate or solvate)
melting point: 250 to 251 °C (dec.)

CC(=O)c1cc(NC(=NNC(=N)N)NCC(C)CCCNC(=NNC(=N)N)Nc2cc(C(C)=NNC(=N)N)cc(C(C)=NNC(=N)N)c2)cc(C(C)=O)c1.Cl.Cl.Cl.Cl (centres unmarked) (hydrate or solvate)
melting point: 258 to 259 °C

CC(=NNC(=N)N)c1cc(C(C)=NNC(=N)N)cc(C(C)=NNC(=N)N)c1 [Compound 1, 1,3,5-triacetylbenzene tris(guanylhydrazone)]
IC50 (RAW 264.7 cells [1]; Mus musculus, RAW264.7): 10 µM | urea % suppression of induced production (RAW 264.7 cells [1]; dose 10 μM): 60% | urea % suppression of induced production (RAW 264.7 cells [1]; dose 25 μM): 100% | arginine transport % suppression of induced peak (RAW 264.7 cells [2]; dose 1 μM): 0% | arginine transport % suppression of induced peak (RAW 264.7 cells [2]; dose 10 μM): 20% | arginine transport % suppression of induced peak (RAW 264.7 cells [2]; dose 25 μM): 40% | no2/no3 % suppression of induced production (RAW 264.7 cells [3]; dose 10 μM): 58% | no2/no3 % suppression of induced production (RAW 264.7 cells [3]; dose 25 μM): 72%

CC(=NNC(=N)N)c1ccc(-n2ccnc2)cc1.Cl [Compound 6, 2-([(1H-imidazol-1-yl)-1,4-phenylene]ethylidyne)hydrazinecarboximidamide hydrochloride]
urea % suppression of induced production (RAW 264.7 cells [1]; dose 50 μM): 0% | urea % suppression of induced production (RAW 264.7 cells [1]; dose 100 μM): 40% | urea % suppression of induced production (RAW 264.7 cells [1]; dose 1 mM): 100% | IC50 (RAW 264.7 cells [1]): 250 µM

CC(=NNC(=N)N)c1ccc(O)c(O)c1.Cl [Compound 7, 2-[(3,4-dihydroxyphenyl)-ethylidyne]hydrazinecarboximidamide hydrochloride]
urea % suppression of induced production (RAW 264.7 cells [1]; dose 10 μM): 23% | urea % suppression of induced production (RAW 264.7 cells [1]; dose 100 μM): 35% | urea % suppression of induced production (RAW 264.7 cells [1]; dose 1 mM): 40% | urea % suppression of induced production (RAW 264.7 cells [1]; dose 2 mM): 55% | urea % suppression of induced production (RAW 264.7 cells [1]; dose 10 mM): 100% | IC50 (RAW 264.7 cells [1]): 2000 µM

CC(=NNC(=N)N)c1ccc(NC(=O)Nc2ccc(C(C)=NNC(=N)N)cc2)cc1 [Compound 8, 4,4′-diacetyldiphenylurea bis(guanylhydrazone)]
urea % suppression of induced production (RAW 264.7 cells [1]; dose 50 μM): 76% | urea % suppression of induced production (RAW 264.7 cells [1]; dose 500 μM): 100% | IC50 (RAW 264.7 cells [1]): 50 µM

CC(=NNC(=N)N)c1ccc(NC(=O)Nc2cc(C(C)=NNC(=N)N)cc(C(C)=NNC(=N)N)c2)cc1.Cl.Cl.Cl [Compound 9, N-(4-acetylphenyl)-N′-(3,5-diacetylphenyl)urea tris(amidinohydrazone) trihydrochloride]
urea % suppression of induced production (RAW 264.7 cells [1]; dose 1 μM): 0% | urea % suppression of induced production (RAW 264.7 cells [1]; dose 10 μM): 60% | urea % suppression of induced production (RAW 264.7 cells [1]; dose 25 μM): 100% | IC50 (RAW 264.7 cells [1]): 10 µM | arginine transport % suppression of induced peak (RAW 264.7 cells [2]; dose 1 μM): 14% | arginine transport % suppression of induced peak (RAW 264.7 cells [2]; dose 10 μM): 32% | arginine transport % suppression of induced peak (RAW 264.7 cells [2]; dose 25 μM): 68% | no2/no3 % suppression of induced production (RAW 264.7 cells [3]; dose 1 μM): 0% | no2/no3 % suppression of induced production (RAW 264.7 cells [3]; dose 10 μM): 53% | no2/no3 % suppression of induced production (RAW 264.7 cells [3]; dose 25 μM): 71%

CC(=O)c1cccc(NC(CCCC(=NNC(=N)N)Nc2cccc(C(C)=O)c2)=NNC(=N)N)c1.Cl.Cl [Compound 12, N,N′-bis(3-acetylphenyl)pentanediamide bis(amidinohydrazone) dihydrochloride]
melting point: 187 to 191 °C

CC(=NNC(=N)N)c1cc(NC(=O)CCCC(=O)Nc2cc(C(C)=NNC(=N)N)cc(C(C)=NNC(=N)N)c2)cc(C(C)=NNC(=N)N)c1.Cl.Cl.Cl.Cl [Compound 13, N,N′-bis(3,5-diacetyl-phenyl)pentanediamide tetrakis(amidinohydrazone) tetrahydrochloride]
urea % suppression of induced production (RAW 264.7 cells [1]; dose 10 μM): 45% | urea % suppression of induced production (RAW 264.7 cells [1]; dose 25 μM, compound as precipitate): 77% | urea % suppression of induced production (RAW 264.7 cells [1]; dose 25 μM, compound dissolved as solution): 100% | urea % suppression of induced production (RAW 264.7 cells [1]; dose 50 μM): 87% | urea % suppression of induced production (RAW 264.7 cells [1]; dose 500 μM): 100% | IC50 (RAW 264.7 cells [1]): 10 µM | arginine transport % suppression of induced peak (RAW 264.7 cells [2]; dose 25 μM): 19% | arginine transport % suppression of induced peak (RAW 264.7 cells [2]; dose 50 μM): 7% | arginine transport % suppression of induced peak (RAW 264.7 cells [2]; dose 500 μM): 93% | no2/no3 % suppression of induced production (RAW 264.7 cells [3]; dose 25 μM): 43% | no2/no3 % suppression of induced production (RAW 264.7 cells [3]; dose 500 μM): 52%

Cl.Cl.N=C(N)NN=C(CCC(=NNC(=N)N)c1ccccc1)c1ccccc1 [Compound 20, 2,2′-(1,4-diphenyl-1,4-butanediylidene)bishydrazinecarboximidamide dihydrochloride]
melting point: 285 to 286 °C | IC50 (RAW 264.7 cells [1]; Mus musculus, RAW264.7): 300 µM | urea % suppression of induced production (RAW 264.7 cells [1]; dose 10 μM): 16% | urea % suppression of induced production (RAW 264.7 cells [1]; dose 50 μM): 19% | urea % suppression of induced production (RAW 264.7 cells [1]; dose 200 μM): 38% | urea % suppression of induced production (RAW 264.7 cells [1]; dose 400 μM): 100% | no2/no3 % suppression of induced production (RAW 264.7 cells [3]; dose 10 μM): 0% | no2/no3 % suppression of induced production (RAW 264.7 cells [3]; dose 50 μM): 0% | no2/no3 % suppression of induced production (RAW 264.7 cells [3]; dose 200 μM): 15% | no2/no3 % suppression of induced production (RAW 264.7 cells [3]; dose 400 μM): 84%
